Experimental data: patent publication US4211764A, “Gastric secretion stimulation with 2-amino-5-(2-aminoethyl)-1,3,4-thiadiozole” (priority 1978, dated 1980)
Read-outs that look alike come from different tables or passages of the source.

Columns and labels:
male dogs = assay: Chronic toxicity, dogs per os; assay type: in vivo; settings: for Bilirubin content / Glutamic-alanine transaminase content: 200 mg per os daily, Test
Procedure: Three male dogs weighing 22 to 25 kg
1. Administration per os, 200 mg
(in gelatin capsules), admini-
stration performed once a day
during 10 days, one animal being

arterial pressure [1] = assay: Arterial pressure in anesthetized cats
Procedure: These experiments were performed on 11 cats weighing 2.5 to 4.0 kg and anesthetized with urethane-chlorazol mixture containing 60 mg/kg of chlorazol and 600 mg/kg of urethane. The arterial pressure was measured in the common carotid artery with the aid of a mercury pressure gauge.

[2] = system: gastric secretion of patients with duodenal ulceration; assay: Clinical comparison in patients with duodenal ulceration; assay type: in vivo, human
Excerpt: (§1) Special attention was paid to side effects and the reproductibility of the secretory response after repeated administrations of the drug.
Histamine and Pentagastrin Upon Main Gastric Secretion
Characteristics of Patients With Duodenal Ulceration

H1 -receptors = target: T1, H1 -receptors (Cavia porcellus, UniProt P31389); assay: Contraction of isolated ileum; settings: guinea pig ileum; read-out: pD2 value in relation to H1 -receptors (converted)
T1 construct: from tissue; host or cells: isolated guinea pig ileum
T1 sequence (P31389 whole entry): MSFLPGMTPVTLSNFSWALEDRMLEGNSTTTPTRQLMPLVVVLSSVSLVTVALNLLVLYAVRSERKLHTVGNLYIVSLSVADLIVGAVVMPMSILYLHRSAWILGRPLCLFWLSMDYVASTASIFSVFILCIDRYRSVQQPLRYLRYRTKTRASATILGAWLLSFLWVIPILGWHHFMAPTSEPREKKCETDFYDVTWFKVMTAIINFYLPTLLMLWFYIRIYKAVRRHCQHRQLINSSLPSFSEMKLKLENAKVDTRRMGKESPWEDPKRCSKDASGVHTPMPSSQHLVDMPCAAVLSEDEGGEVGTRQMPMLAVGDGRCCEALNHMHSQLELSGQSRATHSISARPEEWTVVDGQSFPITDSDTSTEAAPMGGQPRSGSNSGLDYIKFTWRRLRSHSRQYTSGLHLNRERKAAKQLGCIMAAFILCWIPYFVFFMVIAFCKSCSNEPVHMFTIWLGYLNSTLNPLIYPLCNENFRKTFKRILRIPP

H2 -receptors [3] = target: T2, H2 -receptors (Cavia porcellus, UniProt P47747); assay: Heart rate of isolated auricles; settings: isolated guinea pig auricles; read-out: pD2 value, H2 -receptors (heart rate) (converted)
T2 construct: from tissue; host or cells: isolated guinea pig auricles (atria)
T2 sequence (P47747 whole entry): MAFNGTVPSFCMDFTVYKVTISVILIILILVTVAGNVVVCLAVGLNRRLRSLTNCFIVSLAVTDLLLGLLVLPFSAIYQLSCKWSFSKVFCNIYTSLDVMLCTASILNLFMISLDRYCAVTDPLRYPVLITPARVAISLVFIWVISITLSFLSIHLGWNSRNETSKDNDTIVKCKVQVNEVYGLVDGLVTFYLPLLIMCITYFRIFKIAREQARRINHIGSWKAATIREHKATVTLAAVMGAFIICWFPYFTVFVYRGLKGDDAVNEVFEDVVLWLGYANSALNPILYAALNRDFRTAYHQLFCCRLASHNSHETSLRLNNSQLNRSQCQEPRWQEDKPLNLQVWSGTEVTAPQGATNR
Procedure: (§2) Changes in the heart rate were measured, dose-response curves were plotted, and pD2 values were calculated.

H2 -ceptors = H2 -ceptors (Canis lupus familiaris, UniProt P17124); assay: Gastric secretion in dogs with gastric fistula, intramuscular injection
H2 -ceptors, sequence (P17124 whole entry): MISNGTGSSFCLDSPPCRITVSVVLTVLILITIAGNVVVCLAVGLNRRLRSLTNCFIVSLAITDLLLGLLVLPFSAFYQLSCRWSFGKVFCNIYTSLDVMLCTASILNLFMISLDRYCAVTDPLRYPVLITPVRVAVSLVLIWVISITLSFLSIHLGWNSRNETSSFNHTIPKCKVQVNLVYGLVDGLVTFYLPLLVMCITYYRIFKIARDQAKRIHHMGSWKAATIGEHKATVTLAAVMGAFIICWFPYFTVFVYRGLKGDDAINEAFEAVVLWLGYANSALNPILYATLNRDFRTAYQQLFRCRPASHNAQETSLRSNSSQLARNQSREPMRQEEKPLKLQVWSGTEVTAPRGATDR
Procedure: Chronic experiments were performed on male dogs weighing 20 to 25 kg and having a gastric fistula; prior to experiments, the animals were starved for 18 hours.
The gastric juice was analyzed for titratable acidity and proteolytic activity. The hydrochloric acid output was calculated in milliequivalents (mEq) and that of pepsin in milligrams.

[4] = Acute toxicity, guinea pigs; settings: guinea pig, in vivo, male guinea pigs
Excerpt: The results of the tests are generalized in Table 1.

[5] = system: gastric secretion of patients of middle age group; assay: Clinical test: effects of maximum doses upon gastric secretion of patients; assay type: in vivo, human; settings: 2mg/kg; for Gastric Juice, Δ% / HCl Concentration, Δ% / Hourly HCl output, Δ%: 2nd versus 1st hour
Excerpt: as §1

Bulbar Conjunctiva = system: Bulbar Conjunctiva; design: species or system guinea pigs, rabbits; settings: in vivo
Excerpt: C. Irritant Action of 1-5% Solutions On
intramuscular injection

total acidity = assay: Clinical reproducibility of secretory response (total acidity); assay type: in vivo, human
Excerpt: as §1
Reproducibility of Secretory Response to Introduction
of Thidazine and Histamine with Reference to Total
Acidity Values (each group of patients includes 10 persons)
^(x) Percentage of difference is the relationship of the difference
between the total acidity values registered in the first and second tests
of a patient to the greater of these values.

gastric juice = assay: Acute Shay test (pylorus ligation); assay type: in vivo, rat; settings: rats, 8 mg/kg intraperitoneally
Procedure: Twenty acute Shay tests were performed on male rats weighing 250 to 300 g. The pylorus of each of the animals was ligated 2 hours before the slaughter. The pH and volume of the gastric juice were determined. […] In the control group, pH of the gastric juice was 2.2, and the average HCl output was 0.12 mEq per animal. In the experimental animals, pH of the gastric juice was 1.6, and the HCl output was 0.41 mEq.

arterial pressure [6] = assay: Arterial pressure in rabbits; settings: intravenous, thidazine 0.1 mg/kg, equimolar doses of histamine and histalog
Procedure: In a series of experiments of 18 rabbits weighing 2.5 to 3.5 kg, each having the common carotid artery in a cutaneous flap, the preparations were injected intravenously.

Male guinea pigs = assay: Chronic toxicity, daily intravenous injections in guinea pigs; assay type: in vivo
Excerpt: Male guinea pigs weighing 200-250 g
1. Daily intravenous injections of thidazine

H2 -receptors [7] = target: H2 -receptors (Rattus norvegicus, UniProt P25102); settings: uterus horn
H2 -receptors (Rattus norvegicus, UniProt P25102), sequence (P25102 whole entry): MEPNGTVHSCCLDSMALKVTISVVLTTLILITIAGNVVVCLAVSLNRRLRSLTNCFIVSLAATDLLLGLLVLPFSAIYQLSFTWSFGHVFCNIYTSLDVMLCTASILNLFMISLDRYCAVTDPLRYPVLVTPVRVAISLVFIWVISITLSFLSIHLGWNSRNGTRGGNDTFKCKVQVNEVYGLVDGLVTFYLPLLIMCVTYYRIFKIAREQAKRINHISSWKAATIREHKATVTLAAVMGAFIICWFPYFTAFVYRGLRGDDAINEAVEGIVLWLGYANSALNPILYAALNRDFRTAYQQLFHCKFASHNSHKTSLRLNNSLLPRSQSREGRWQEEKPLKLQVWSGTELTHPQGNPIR
Procedure: Contractions of an isolated horn of uterus of a rat due to the effect of acetylcholine in a concentration of 1.10^-6 M were recorded on a paper tape.

H1 - and H2 -receptors = assay: Comparison of effects upon H1 - and H2 -receptors of different objects
Procedure: as §2

gastric secretion = assay type: in vivo, human
Excerpt: as §1
The clinical investigation also helped to determine effective doses of the proposed preparation for submaximum and maximum tests and different forms of administration.

[8] = hypodermic, 1st hour (basal secretion)
[9] = hypodermic, 2nd hour (response to drug)
[10] = per os, 1st hour (basal secretion)
[11] = per os, 2nd hour (response to drug)
[12] = 20 mg/kg i/v daily 10 days, beginning of experiment
[13] = 20 mg/kg i/v daily 10 days, end of experiment

## NCCc1nnc(N)s1 [Thidazine, 2-amino-5-(2-aminoethyl)-1,3,4-thiadiazole]
Male dogs; 200 mg per os daily 10 days
  Behavior, food reflexes: No changes
Male dogs; 5th day
  Bilirubin content: 0.15 mg%
  Glutamic-alanine transaminase content: 30 units
Male dogs; 10th day
  Bilirubin content: 0.15 mg%
  Glutamic-alanine transaminase content: 32 units
Male dogs; at beginning
  Bilirubin content: 0.16 mg%
Male dogs; beginning
  Glutamic-alanine transaminase content: 30 units
Male dogs; dog, in vivo
  Histological Examination of Internal Organs: No microscopic changes
  Urinalysis: volume, specific weight, protein, microscopy of urinary sediment: No significant changes
Arterial pressure [1]; anesthetized cats, 0.1 mg/kg intravenous
  reduction of arterial pressure: 30 mm of mercury
Arterial pressure [1]; cats, doses below 0.1 mg/kg intravenous
  hypotensive reaction: No hypotensive reaction was observed
[2]; 1st hour (basal secretion)
  Chymosin Output: 17.3 ± 0.3 units per hour
  Pepsin Output: 4.0 ± 0.7 units per hour
  Secretion, milliequivalents per hour: 7.25 ± 0.9 Milliequivalents per hour
[2]; 2nd hour
  Chymosin Output: 218.2 ± 4.0 units per hour
  Pepsin Output: 17.8 ± 2.3 units per hour
  Secretion, milliequivalents per hour: 23.9 ± 1.8 Milliequivalents per hour
H1 -receptors
  EC50: 398 µM
H2 -receptors [3]
  EC50: 7.94 µM
H2 -ceptors; animal (dog)
  production of maximum level of hydrochloric acid secretion in the stomach: can produce a maximum level of hydrochloric acid secretion in the stomach of a dog
H2 -ceptors; dog, 3 mg/kg (maximum secretion dose)
  effect upon arterial pressure, heart rate and general behavior: no significant effect
H2 -ceptors; dogs, intramuscular
  maximum dose: 3.0 mg/kg
  maximum hourly output of hydrochloric acid: 24 mEq per hour
  maximum hourly output of pepsin: 110 mg per hour
  minimum active dose: 0.05 mg/kg
[4]; ip, 280-350 g, i/p
  LD50: 360 mg/kg
[4]; iv, 200-250 g, i/v
  LD50: 190 mg/kg
[5]; [8]
  Gastric Juice: 87.0 ml per hour
  HCl Concentration: 43.9 milliequivalents per liter
[5]; [9]
  Gastric Juice: 200.5 ml per hour
  HCl Concentration: 100.8 milliequivalents per liter
[5]; hypodermic
  Gastric Juice, Δ%: +130.5%
  HCl Concentration, Δ%: +129.6%
  Hourly HCl output, Δ%: +471.9%
[5]; hypodermic, 11 observations, 1st hour (basal secretion)
  Hourly HCl output: 8.2 milliequivalents per hour
[5]; hypodermic, 11 observations, 2nd hour (response to drug)
  Hourly HCl output: 18.3 milliequivalents per hour
[5]; [10]
  Gastric Juice: 102.1 ml per hour
  HCl Concentration: 33.3 milliequivalents per liter
[5]; [11]
  Gastric Juice: 227.9 ml per hour
  HCl Concentration: 103.2 milliequivalents per liter
[5]; per os
  Gastric Juice, Δ%: +123%
  HCl Concentration, Δ%: +209.9%
  Hourly HCl output, Δ%: +402.3%
[5]; per os, 13 observations, 1st hour (basal secretion)
  Hourly HCl output: 4.3 milliequivalents per hour
[5]; per os, 13 observations, 2nd hour (response to drug)
  Hourly HCl output: 21.6 milliequivalents per hour
Bulbar Conjunctiva
  Irritant Action: Negative reaction
Total acidity; 0.7 mg/kg hypodermic
  % of difference (fluctuations) of total acidity, first and second tests: 15-42%
  Average difference of total acidity: 31%
Total acidity; 1.5mg/kg per os
  % of difference (fluctuations) of total acidity, first and second tests: 0-22%
  Average difference of total acidity: 7.5%
Gastric juice
  increase of output of hydrochloric acid after ligation of the pylorus: increased the output of hydrochloric acid more than threefold
Gastric juice; control group 0.12 mEq per animal
  HCl Output: 0.41 mEq
Gastric juice; control group 2.2
  pH of the gastric juice: 1.6
Arterial pressure [6]
  reduction of arterial pressure: 12 mm of mercury
Male guinea pigs; 20 mg/kg i/v daily 10 days
  Coagulability of Blood: No changes
  Differential Blood Count: No significant changes
  ECG at beginning and end of experiment: No significant changes
Male guinea pigs; 20 mg/kg i/v daily 10 days, Control Period (beginning)
  Average weight in test group: 220.0 ± 58 g
Male guinea pigs; 20 mg/kg i/v daily 10 days, Test Period (end)
  Average weight in test group: 252.3 ± 50 g
Male guinea pigs; [12]
  ESR, test group: 2 mm
  Erythrocytes, test group: 3.75 ± 0.1 mln.
  Hemoglobin, test group: 11.8 ± 0.1%
  Leukocytes, test group: 11360 ± 900 thous.
Male guinea pigs; [13]
  ESR, test group: 2 mm
  Erythrocytes, test group: 3.93 ± 0.1 mln.
  Hemoglobin, test group: 12.4 ± 0.3%
  Leukocytes, test group: 9500 ± 835 thous.
Male guinea pigs; two animal species, 1/10 LD50
  effect upon growth and development and blood composition: no significant effect
  pathological changes in the vital organs: causes no pathological changes in the vital organs
H2 -receptors [7]
  Emax: 15%
H1 - and H2 -receptors
  action upon H2 -receptors compared with H1 -receptors: the action of thidazine upon H2 -receptors is stronger than its action upon H1 -receptors
Gastric secretion; hypodermic or intramuscular
  dose for maximum secretion test: 1.6 mg/kg
  dose for submaximum secretion test: 0.8 mg/kg
Gastric secretion; patients, adequate doses
  secretory activity compared with histamine and pentagastrin: close to histamine and pentagastrin
Gastric secretion; patients, tablets or solutions
  effectiveness per os compared with parenteral: as effectively as parenterally
Gastric secretion; per os
  dose for maximum secretion test: 2.0 mg/kg
  dose for submaximum secretion test: 1.5 mg/kg
